How the values were obtained:
[1] = system: HFD-fed C57BL/6 mice; assay: Metabolic profile of HFD-fed mice (diet-induced obesity); format: in vivo; conditions: for non-fasting blood glucose level: 50 mg/kg 3 times a week
Experimental: FIG. 12 indicates the improvement of the metabolic profile of HFD-feed mice by MSL-7: (FIG. 12A) Confocal microscopic result of HeLa cells transfected with tandem mRFP-GFP-LC3 and treated with MSL-7 in which red puncta indicates autophagolysosome. (FIG. 12B, 12C) 8 week old male C57BL/6 mice were fed with HFD or normal chow diet (NCD) for 8 weeks, and then 50 mg/kg MSL-7 was administered three times a week for 8 weeks. Non-fasting glucose level (FIG. 12B) and body weight (FIG. 12C) were monitored. (FIG. 12D) IPGTT. (FIG. 12E) AUC curve of (FIG. 12D). (FIG. 12F) ITT. (FIG. 12G) AUC curve of (FIG. 12F).
Screening of autophagy enhancer. […] Luciferase assay. Firefly and Renilla luciferase assays were conducted using the Dual-Luciferase Reporter Assay System (Promega) according to the manufacturer's recommendation. In brief, cells were lysed in 1× lysis buffer and subjected to a single round of freezing/thawing. Firefly luciferase was determined after mixing 5 μl of lysate with 25 μl of Luciferase Assay Reagent II. Renilla luciferase was then determined after further addition of 20 ul of Stop&Glo Reagent. Cell culture and media and drugs treatment. HeLa, TFEB-GFP-HeLa, SK-HEP1 (hepatoma cell line) and Hepa1c1c7 (hepatoma cell line) cells were cultured in the following media: (normal) Dulbecco's modified Eagle's medium (DMEM, Sigma-Aldrich) supplemented with 10% FBS and 1% penicillin/streptomycin; (starvation) HBSS media with Ca and Mg supplemented with 10 mM HEPES; Drugs treatment: MSL compound (50-100 μM); Rapamycin ([…]); Torin-1 (1 μM); Bafilomycin (100 nM); Cyclosporin A (10 μM); and FK506 (5 μM). Cells were treated with oleic acid (400 μM) and palmitic acid (400 μM) for 24 h. Where indicated, cells were washed off with HBSS and replaced by DMEM with or without MSL for 16 h. INS-1 cells, a insulinoma cell line of […] were cultured as described previously (Kim et al., 2014 ibid) in the presence or absence of bafilomycin and treated with MSL-7. Lactate dehydrogenase (LDH) assay. Cytotoxicity was determined by the measurement of LDH release in cell culture media using the LDH kit (Roche), according to the protocol from the manufacturer. Transfection and plasmids. Cells were transiently transfected with DNA plasmids 3×FLAG-hTFEB (A Ballabio), FYVE-dsRed (Cantley LC), RFP-LC3 or mRFP-GFP-LC3 using lipofectamine 2000 (Invitrogen) according to the protocol from the manufacturer. INS-1 cells were transfected with prepro-mIAPP-HA or prepro-hIAPP-HA using jetPEIDNA according to the manufacturer's protocol. Imaging and image quantification. Imaging was performed with a ×40 objective on an LSM780 confocal microscope (Zeiss). Image analysis (spot count per cell) was performed using Image J. When indicated, cells were stained for lipid droplets with BODIPY 493/503 (Invitrogen, […], 20 min) according to the manufacturer's methods. Formation of acidic vesicular organelles was quantitated by staining the cells with acridine orange (Invitrogen, 5 ug/ml, 10 min). Antibodies and western blotting. Cells or tissues were solubilized in lysis buffer supplemented with protease and phosphatase inhibitors and protein concentration was measured by the Bradford method. Ten to 30 micrograms were loaded on 4-12% Bis-Tris gel (NUPAGE, Invitrogen) or 8-15% SDS-PAGE, transferred to PVDF membranes and analyzed by western blot using the ECL method (Pierce). The following antibodies were used: LC3 (Novus NB100-2331, 1:1,000), p62 (Progen GP62-C, 1:1,000), b-actin (Santa Cruz sc-47778, 1:5,000), FLAG (Sigma-Aldrich F1804, 1:2,000), 70S6K (Cell Signaling 9202S, 1:1000), p-70S6K (Cell Signaling 9206S, 1:1000), mTOR (Cell Signaling 2983, 1:1000), pmTOR (Cell Signaling 2971S, 1:1000), TFEB (Cell Signaling 4240, 1:1000). Protein levels were quantified by using ImageJ software analysis. RNA extraction, RT and real-time RT-PCR. […]

[2] = system: calcineurin; assay: Calcineurin phosphatase activity assay; format: cell-based; conditions: lysates of Hepa1c1c7 cells
[3] = system: primary peritoneal macrophages; assay: Mitochondrial ROS (MitoSOX) and potential (MitoTracker) by FACS; format: cell-based, C57BL/6 mice; conditions: PA plus LPS

Row | SMILES | non-fasting blood glucose level ([1]; HFD, 8 weeks) | area under the curves (AUCs) of IPGTT and ITT ([1]; HFD, 8 weeks) | body weight ([1]; HFD, 8 weeks) | glucose tolerance / glucose intolerance (IPGTT) ([1]; HFD, 8 weeks) | insulin sensitivity (ITT) ([1]; HFD, 8 weeks) | glucose profile of lean or chow-fed mice ([1]; lean or chow-fed mice) | calcineurin activity [2] | mitochondrial ROS content (MitoSox) [3] | mitochondrial potential (MitoTracker Red) [3]
1 | COc1oc(-c2ccccc2Cl)nc1S(=O)(=O)c1ccccc1 [MSL-7, 2-(2-chlorophenyl)-5-methoxy-4-(phenylsulfonyl) oxazole] | significantly reduced | reduced | without changing the body weight | significantly improved | significantly improved | does not affect | calcineurin activation in a dose-dependent manner |  | 
2 | CSc1oc(-c2ccccc2)nc1S(=O)(=O)c1ccc(F)cc1 [MSL] | reduced non-fasting blood glucose level and glucose intolerance in mice fed high-fat diet (HFD). however, statistical significance was not achieved for most comparisons |  |  | reduced non-fasting blood glucose level and glucose intolerance in mice fed high-fat diet (HFD). however, statistical significance was not achieved for most comparisons |  |  | significantly increased | significantly reduced | significantly reduced

Reference: patent US10881642B2, “Autophagy enhancer and use thereof” (Industry-Academic Cooperation Foundation, Yonsei University, priority 2016, dated 2021)
